Reference: the kinase profiling compilation of Christmann-Franck et al. (2016)

Assays:
Test in all cases: radiometric filter-binding kinase assay, Kinase HotSpot
Conditions in all cases: compound 0.5 µM; ATP 10 µM
[1] = target: ADRBK2 (human) (UniProt P35626)
[2] = target: AXL (human) (UniProt P30530)
[3] = target: CAMK1 (human) (UniProt Q14012)
[4] = target: CDK6 CCND1 (human) (UniProt Q00534+P24385)
[5] = target: CLK4 (human) (UniProt Q9HAZ1)
[6] = target: CSNK1A1 (human) (UniProt P48729)
[7] = target: EPHB3 (human) (UniProt P54753)
[8] = target: FGFR4 (human) (UniProt P22455)
[9] = target: GRK6 (human) (UniProt P43250)
[10] = target: LRRK2 (human) (UniProt Q5S007)
[11] = target: LTK (human) (UniProt P29376)
[12] = target: MAP3K10 (human) (UniProt Q02779)
[13] = target: MAP3K11 (human) (UniProt Q16584)
[14] = target: MAPK12 (human) (UniProt P53778)
[15] = target: MAPKAPK5 (human) (UniProt Q8IW41)
[16] = target: MARK2 (human) (UniProt Q7KZI7)
[17] = target: MST1R (human) (UniProt Q04912)
[18] = target: NEK1 (human) (UniProt Q96PY6)
[19] = target: NEK7 (human) (UniProt Q8TDX7)
[20] = target: NEK9 (human) (UniProt Q8TD19)
[21] = target: NTRK1 (human) (UniProt P04629)
[22] = target: PAK2 (human) (UniProt Q13177)
[23] = target: PAK3 (human) (UniProt O75914)
[24] = target: PAK4 (human) (UniProt O96013)
[25] = target: PDPK1 (human) (UniProt O15530)
[26] = target: PLK1 (human) (UniProt P53350)
[27] = target: PLK2 (human) (UniProt Q9NYY3)
[28] = target: PRKCG (human) (UniProt P05129)
[29] = target: PRKG2 (human) (UniProt Q13237)
[30] = target: ROCK2 (human) (UniProt O75116)
[31] = target: RPS6KA1 KD1 KD2 (human) (UniProt Q15418)
[32] = target: RPS6KA3 KD1 KD2 (human) (UniProt P51812)
[33] = target: SIK2 (human) (UniProt Q9H0K1)
[34] = target: SRMS (human) (UniProt Q9H3Y6)
[35] = target: STK17A (human) (UniProt Q9UEE5)
[36] = target: STK24 (human) (UniProt Q9Y6E0)
[37] = target: STK25 (human) (UniProt O00506)
[38] = target: TAOK1 (human) (UniProt Q7L7X3)
[39] = target: WEE1 (human) (UniProt P30291)
[40] = target: ZAP70 (human) (UniProt P43403)
[41] = target: CDK9 CCNT1 (human) (UniProt P50750+O60563)
[42] = target: RET (human) (UniProt P07949)

Sequence of CLK4 (human) (Q9HAZ1 whole entry, looked up): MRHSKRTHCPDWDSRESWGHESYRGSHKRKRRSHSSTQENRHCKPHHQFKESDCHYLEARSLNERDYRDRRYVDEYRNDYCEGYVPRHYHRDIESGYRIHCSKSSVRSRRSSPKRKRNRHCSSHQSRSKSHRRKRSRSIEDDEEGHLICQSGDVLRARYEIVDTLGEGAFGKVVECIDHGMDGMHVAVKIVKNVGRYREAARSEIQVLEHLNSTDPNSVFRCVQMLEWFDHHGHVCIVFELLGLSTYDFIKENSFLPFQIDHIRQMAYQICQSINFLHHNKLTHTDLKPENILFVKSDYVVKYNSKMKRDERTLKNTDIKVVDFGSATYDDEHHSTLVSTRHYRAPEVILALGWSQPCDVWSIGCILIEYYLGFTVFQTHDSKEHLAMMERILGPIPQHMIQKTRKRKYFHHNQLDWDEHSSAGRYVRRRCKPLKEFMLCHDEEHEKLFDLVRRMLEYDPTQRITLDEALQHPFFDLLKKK
Sequence of NTRK1 (human) (P04629 whole entry, looked up): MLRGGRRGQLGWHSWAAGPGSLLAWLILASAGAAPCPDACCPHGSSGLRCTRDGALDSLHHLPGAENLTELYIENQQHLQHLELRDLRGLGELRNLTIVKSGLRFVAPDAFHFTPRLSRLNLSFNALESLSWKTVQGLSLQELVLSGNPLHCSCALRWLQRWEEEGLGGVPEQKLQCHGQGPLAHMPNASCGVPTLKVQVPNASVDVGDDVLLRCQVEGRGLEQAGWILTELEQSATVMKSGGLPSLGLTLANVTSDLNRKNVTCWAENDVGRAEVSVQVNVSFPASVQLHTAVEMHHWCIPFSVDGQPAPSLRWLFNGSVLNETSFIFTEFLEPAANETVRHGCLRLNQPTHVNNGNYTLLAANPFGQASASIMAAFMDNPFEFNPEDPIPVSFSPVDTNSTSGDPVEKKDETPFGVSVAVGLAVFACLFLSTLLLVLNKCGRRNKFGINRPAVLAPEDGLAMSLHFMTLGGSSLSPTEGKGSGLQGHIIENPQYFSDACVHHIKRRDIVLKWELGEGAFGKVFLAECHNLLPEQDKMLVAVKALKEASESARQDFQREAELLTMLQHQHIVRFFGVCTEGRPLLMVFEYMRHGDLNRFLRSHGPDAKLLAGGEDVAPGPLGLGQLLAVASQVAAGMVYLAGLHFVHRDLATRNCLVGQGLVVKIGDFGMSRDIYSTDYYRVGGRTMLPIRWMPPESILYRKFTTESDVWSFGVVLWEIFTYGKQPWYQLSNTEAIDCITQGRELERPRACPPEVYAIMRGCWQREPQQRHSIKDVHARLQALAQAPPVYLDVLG
Sequence of PAK4 (human) (O96013 whole entry, looked up): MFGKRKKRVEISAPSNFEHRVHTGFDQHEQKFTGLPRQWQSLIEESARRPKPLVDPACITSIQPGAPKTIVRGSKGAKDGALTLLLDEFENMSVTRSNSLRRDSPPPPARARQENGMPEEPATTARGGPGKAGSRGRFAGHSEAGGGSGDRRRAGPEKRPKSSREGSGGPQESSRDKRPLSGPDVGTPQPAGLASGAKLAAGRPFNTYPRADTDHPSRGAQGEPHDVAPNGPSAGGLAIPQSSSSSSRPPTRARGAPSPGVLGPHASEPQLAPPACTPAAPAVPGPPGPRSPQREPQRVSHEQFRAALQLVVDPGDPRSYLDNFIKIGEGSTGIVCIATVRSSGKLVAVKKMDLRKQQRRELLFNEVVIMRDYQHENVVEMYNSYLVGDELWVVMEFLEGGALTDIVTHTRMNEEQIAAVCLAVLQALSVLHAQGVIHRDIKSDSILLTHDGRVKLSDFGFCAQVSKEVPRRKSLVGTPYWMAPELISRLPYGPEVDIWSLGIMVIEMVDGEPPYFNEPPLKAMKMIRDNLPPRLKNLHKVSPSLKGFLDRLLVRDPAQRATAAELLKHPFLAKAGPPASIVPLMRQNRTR
Sequence of MAPK12 (human) (P53778 whole entry, looked up): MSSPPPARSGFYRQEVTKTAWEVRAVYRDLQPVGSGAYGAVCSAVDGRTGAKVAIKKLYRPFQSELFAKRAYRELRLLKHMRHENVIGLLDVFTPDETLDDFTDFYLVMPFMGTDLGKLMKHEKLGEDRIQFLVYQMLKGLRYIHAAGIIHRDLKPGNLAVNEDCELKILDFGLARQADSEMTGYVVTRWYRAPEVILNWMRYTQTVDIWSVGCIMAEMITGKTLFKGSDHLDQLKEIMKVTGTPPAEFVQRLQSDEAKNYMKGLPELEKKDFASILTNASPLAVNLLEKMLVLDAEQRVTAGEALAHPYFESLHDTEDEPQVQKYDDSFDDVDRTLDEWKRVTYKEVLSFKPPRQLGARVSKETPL
Sequence of AXL (human) (P30530 whole entry, looked up): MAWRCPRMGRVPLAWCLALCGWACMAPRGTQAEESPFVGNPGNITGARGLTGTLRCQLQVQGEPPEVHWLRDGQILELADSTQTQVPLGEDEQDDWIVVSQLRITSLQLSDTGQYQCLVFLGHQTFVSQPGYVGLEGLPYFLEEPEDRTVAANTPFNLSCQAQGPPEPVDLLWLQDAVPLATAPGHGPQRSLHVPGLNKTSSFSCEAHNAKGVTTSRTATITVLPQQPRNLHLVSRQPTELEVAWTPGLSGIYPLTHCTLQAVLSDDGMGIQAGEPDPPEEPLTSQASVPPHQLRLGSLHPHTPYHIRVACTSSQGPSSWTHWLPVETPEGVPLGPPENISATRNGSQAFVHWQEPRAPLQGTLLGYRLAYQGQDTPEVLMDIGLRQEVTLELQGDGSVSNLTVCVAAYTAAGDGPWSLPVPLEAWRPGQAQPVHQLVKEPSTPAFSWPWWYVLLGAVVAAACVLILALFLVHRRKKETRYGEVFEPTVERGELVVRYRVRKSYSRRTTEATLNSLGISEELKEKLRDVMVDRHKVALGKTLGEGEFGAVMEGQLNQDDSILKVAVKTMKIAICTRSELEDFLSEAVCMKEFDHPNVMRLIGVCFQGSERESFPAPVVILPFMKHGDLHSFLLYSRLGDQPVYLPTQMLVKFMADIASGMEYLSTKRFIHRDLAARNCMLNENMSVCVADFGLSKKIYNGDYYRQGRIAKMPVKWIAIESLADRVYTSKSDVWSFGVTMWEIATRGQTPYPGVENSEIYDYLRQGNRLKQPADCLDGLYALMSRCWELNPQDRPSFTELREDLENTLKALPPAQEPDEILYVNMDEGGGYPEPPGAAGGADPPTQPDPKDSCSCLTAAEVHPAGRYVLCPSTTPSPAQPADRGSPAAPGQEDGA
Sequence of PRKG2 (human) (Q13237 whole entry, looked up): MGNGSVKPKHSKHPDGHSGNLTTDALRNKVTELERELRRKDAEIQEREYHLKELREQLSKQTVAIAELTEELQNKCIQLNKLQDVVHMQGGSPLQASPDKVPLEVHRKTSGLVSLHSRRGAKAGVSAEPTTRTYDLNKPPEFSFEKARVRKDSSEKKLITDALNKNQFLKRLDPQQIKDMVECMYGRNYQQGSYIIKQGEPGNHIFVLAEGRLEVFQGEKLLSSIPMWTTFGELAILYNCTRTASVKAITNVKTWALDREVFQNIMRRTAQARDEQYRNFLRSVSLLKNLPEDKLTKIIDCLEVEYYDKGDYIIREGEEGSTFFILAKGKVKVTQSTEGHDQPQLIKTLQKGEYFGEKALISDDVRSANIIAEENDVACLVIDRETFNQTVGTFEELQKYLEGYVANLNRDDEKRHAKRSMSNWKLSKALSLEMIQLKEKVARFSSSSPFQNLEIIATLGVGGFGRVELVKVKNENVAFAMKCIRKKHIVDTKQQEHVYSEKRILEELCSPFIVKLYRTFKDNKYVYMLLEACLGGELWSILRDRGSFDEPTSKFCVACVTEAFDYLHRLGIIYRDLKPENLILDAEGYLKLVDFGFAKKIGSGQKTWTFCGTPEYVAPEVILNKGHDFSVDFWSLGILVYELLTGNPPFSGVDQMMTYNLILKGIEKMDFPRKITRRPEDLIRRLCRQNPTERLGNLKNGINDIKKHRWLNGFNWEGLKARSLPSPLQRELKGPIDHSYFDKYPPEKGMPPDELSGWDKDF
Sequence of NEK9 (human) (Q8TD19 whole entry, looked up): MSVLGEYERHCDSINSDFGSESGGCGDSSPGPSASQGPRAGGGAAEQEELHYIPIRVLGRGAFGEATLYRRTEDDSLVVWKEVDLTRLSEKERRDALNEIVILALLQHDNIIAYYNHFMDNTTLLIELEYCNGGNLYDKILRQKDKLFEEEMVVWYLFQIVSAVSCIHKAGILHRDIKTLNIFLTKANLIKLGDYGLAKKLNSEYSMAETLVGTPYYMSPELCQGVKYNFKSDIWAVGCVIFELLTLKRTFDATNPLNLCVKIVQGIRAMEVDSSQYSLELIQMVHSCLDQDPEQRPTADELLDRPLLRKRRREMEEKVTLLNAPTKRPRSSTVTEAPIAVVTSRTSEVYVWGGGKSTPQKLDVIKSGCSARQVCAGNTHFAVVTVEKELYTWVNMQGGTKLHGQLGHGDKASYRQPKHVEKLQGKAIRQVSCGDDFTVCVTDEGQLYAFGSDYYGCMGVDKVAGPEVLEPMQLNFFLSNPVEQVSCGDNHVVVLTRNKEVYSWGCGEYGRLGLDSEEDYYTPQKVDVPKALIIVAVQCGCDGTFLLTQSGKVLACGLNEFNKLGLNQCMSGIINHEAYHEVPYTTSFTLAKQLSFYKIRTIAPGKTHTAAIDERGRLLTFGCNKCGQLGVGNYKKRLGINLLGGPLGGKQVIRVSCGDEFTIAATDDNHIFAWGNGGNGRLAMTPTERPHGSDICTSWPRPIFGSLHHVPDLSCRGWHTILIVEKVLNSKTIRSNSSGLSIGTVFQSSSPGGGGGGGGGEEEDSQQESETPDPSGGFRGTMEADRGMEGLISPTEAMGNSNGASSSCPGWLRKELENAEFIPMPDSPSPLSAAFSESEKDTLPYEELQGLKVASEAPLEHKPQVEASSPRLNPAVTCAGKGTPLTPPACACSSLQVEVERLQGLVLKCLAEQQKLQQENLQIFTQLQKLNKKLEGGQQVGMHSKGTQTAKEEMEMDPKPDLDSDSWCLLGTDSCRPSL

Question: How did the residual activity [1] turn out when `COc1cc2c(Nc3ccc(Br)cc3F)ncnc2cc1OCC1CCN(C)CC1` was run?
Answer: 97.4%

Question: What about the residual activity [2] of the same compound?
Answer: 55%

Question: What about the residual activity [3] of the same compound?
Answer: 81.6%

Question: And the residual activity [4]?
Answer: 98.7%

Question: What about the residual activity [5] of the same compound?
Answer: 84.3%

Question: And the residual activity [6]?
Answer: 102%

Question: What about the residual activity [7] of the same compound?
Answer: 77.4%

Question: And the residual activity [8]?
Answer: 90%

Question: What about the residual activity [9] of the same compound?
Answer: 104%

Question: And the residual activity [10]?
Answer: 113%

Question: And the residual activity [11]?
Answer: 64.6%

Question: And the residual activity [12]?
Answer: 102%

Question: What about the residual activity [13] of the same compound?
Answer: 100%

Question: And the residual activity [14]?
Answer: 92.6%

Question: What about the residual activity [15] of the same compound?
Answer: 94.7%

Question: What about the residual activity [16] of the same compound?
Answer: 107%

Question: What about the residual activity [17] of the same compound?
Answer: 93.6%

Question: What about the residual activity [18] of the same compound?
Answer: 123%

Question: What about the residual activity [19] of the same compound?
Answer: 99%

Question: And the residual activity [20]?
Answer: 101%

Question: And the residual activity [21]?
Answer: 104%

Question: And the residual activity [22]?
Answer: 103%

Question: What about the residual activity [23] of the same compound?
Answer: 103%

Question: And the residual activity [24]?
Answer: 90.2%

Question: What about the residual activity [25] of the same compound?
Answer: 91.3%

Question: What about the residual activity [26] of the same compound?
Answer: 98.5%

Question: And the residual activity [27]?
Answer: 103%

Question: What about the residual activity [28] of the same compound?
Answer: 93.2%

Question: What about the residual activity [29] of the same compound?
Answer: 101%

Question: And the residual activity [30]?
Answer: 90.7%

Question: What about the residual activity [31] of the same compound?
Answer: 102%

Question: What about the residual activity [32] of the same compound?
Answer: 97.8%

Question: What about the residual activity [33] of the same compound?
Answer: 17.6%

Question: And the residual activity [34]?
Answer: 98.8%

Question: And the residual activity [35]?
Answer: 92.4%

Question: What about the residual activity [36] of the same compound?
Answer: 104%

Question: What about the residual activity [37] of the same compound?
Answer: 99%

Question: And the residual activity [38]?
Answer: 103%

Question: What about the residual activity [39] of the same compound?
Answer: 95.1%

Question: And the residual activity [40]?
Answer: 96.8%

Question: Which residual activity [1] does the source give for `O=c1cc(N2CCOCC2)oc2c(-c3ccccc3)cccc12` here?
Answer: 99.8%

Question: And the residual activity [2]?
Answer: 110%

Question: And the residual activity [3]?
Answer: 96.7%

Question: And the residual activity [4]?
Answer: 97.9%

Question: And the residual activity [41]?
Answer: 103%

Question: What about the residual activity [5] of the same compound?
Answer: 89.1%

Question: And the residual activity [7]?
Answer: 94.6%

Question: What about the residual activity [8] of the same compound?
Answer: 104%

Question: What about the residual activity [9] of the same compound?
Answer: 93%

Question: What about the residual activity [10] of the same compound?
Answer: 96.9%

Question: And the residual activity [11]?
Answer: 87.8%

Question: And the residual activity [12]?
Answer: 90.1%

Question: What about the residual activity [13] of the same compound?
Answer: 101%

Question: And the residual activity [14]?
Answer: 104%

Question: And the residual activity [15]?
Answer: 94.1%

Question: And the residual activity [16]?
Answer: 79.2%

Question: What about the residual activity [17] of the same compound?
Answer: 109%

Question: And the residual activity [18]?
Answer: 86.7%

Question: What about the residual activity [19] of the same compound?
Answer: 92.1%

Question: What about the residual activity [20] of the same compound?
Answer: 101%

Question: And the residual activity [21]?
Answer: 95%

Question: What about the residual activity [22] of the same compound?
Answer: 103%

Question: And the residual activity [23]?
Answer: 104%

Question: And the residual activity [24]?
Answer: 92.8%

Question: And the residual activity [25]?
Answer: 104%

Question: And the residual activity [26]?
Answer: 67.1%

Question: And the residual activity [27]?
Answer: 98.9%

Question: What about the residual activity [28] of the same compound?
Answer: 94.2%

Question: What about the residual activity [29] of the same compound?
Answer: 105%

Question: And the residual activity [42]?
Answer: 99.2%

Question: And the residual activity [30]?
Answer: 95.2%

Question: And the residual activity [31]?
Answer: 97.3%

Question: What about the residual activity [32] of the same compound?
Answer: 98.1%

Question: What about the residual activity [33] of the same compound?
Answer: 96.8%

Question: What about the residual activity [34] of the same compound?
Answer: 103%

Question: And the residual activity [35]?
Answer: 93.5%

Question: What about the residual activity [36] of the same compound?
Answer: 97.1%

Question: And the residual activity [37]?
Answer: 116%

Question: And the residual activity [38]?
Answer: 86.4%

Question: And the residual activity [39]?
Answer: 76.4%

Question: What about the residual activity [40] of the same compound?
Answer: 102%
